For orientation: IC50 means the concentration at which inhibition is half-maximal.

The target of one test is T1, PKMYT1 (Homo sapiens, UniProt Q99640).
T1 construct: PKMYT1 (93 kD, full length, N-terminal GST tag from Signal Chem); GST (N); purchased Signal Chem
T1 sequence (Q99640 1-499): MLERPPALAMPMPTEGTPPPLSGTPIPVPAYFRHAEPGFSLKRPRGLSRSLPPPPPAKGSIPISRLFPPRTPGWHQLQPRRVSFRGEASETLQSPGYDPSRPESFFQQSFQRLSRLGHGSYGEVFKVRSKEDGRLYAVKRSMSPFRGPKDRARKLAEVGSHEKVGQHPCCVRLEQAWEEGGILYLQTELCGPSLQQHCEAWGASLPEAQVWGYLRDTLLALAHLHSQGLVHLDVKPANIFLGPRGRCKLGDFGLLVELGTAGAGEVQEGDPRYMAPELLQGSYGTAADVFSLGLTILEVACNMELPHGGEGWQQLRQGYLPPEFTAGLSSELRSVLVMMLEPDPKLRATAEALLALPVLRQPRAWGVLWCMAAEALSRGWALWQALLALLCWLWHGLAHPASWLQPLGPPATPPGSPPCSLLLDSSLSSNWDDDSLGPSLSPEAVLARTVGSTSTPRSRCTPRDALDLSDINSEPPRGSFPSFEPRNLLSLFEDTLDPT
Description: ADP-Glo PKMYT1 ATP-depletion assay. The following applies: 50 nM PKMYT1, 13.3 nM CDK1, read-out: Biochemical IC50. The method in brief: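 Full-length N-terminal GST-tagged PKMYT1 (50 nM) with GST-CDK1 (13.3 nM) as substrate and 88 µM ATP, in Hepes buffer with MgCl2, MnCl2, DTT and BSA; DMSO <1%. Incubated 120 min at RT. ADP formed was quantified by ADP-Glo luminescence and used to derive biochemical IC50.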
For orientation: In ADP-Glo the light output rises with the ADP produced.

Test [1] has as its system phosphorylation of CDK1 at Thr14 in HCC1806 cells. The test can be described thus: Cell lysate AlphaLISA assay measuring inhibition of phosphorylation of CDK1 Thr14. The format is cell-based. The following applies: read-out: Cellular IC50. A digest of the protocol: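 HCC1806 cells seeded overnight, then treated 4 h at 37 °C, 5% CO2 with compounds in DMSO; washed and lysed, lysates frozen overnight at −80 °C. CDK1 Thr14 phosphorylation read by AlphaLISA SureFire Ultra; data normalized to DMSO (0% inhibition) and 3 μM reference compound to give IC50.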

Where two headings read alike, the source gives them in different places.

Take `Cc1ccc2[nH]ncc2c1-c1c(N)c(C(N)=O)nc2cccnc12` (single isomer, unassigned) [Compound 7, (P)-3-amino-4-(5-methyl-1H-indazol-4-yl)-1,5-naphthyridine-2-carboxamide]: the IC50 on PKMYT1 is 50 to 500 nM; in test [1] (4 hours), 1000 to 5000 nM.
Regarding `NC(=O)c1cc2nccnc2c(-c2cc(O)ccc2C(F)(F)F)c1N` [Compound 215], the IC50 on PKMYT1 is not below 5000 nM; in test [1] (Homo sapiens, HCC1806, 4 h) it was not below 5000 nM.
As to `Cc1cnn(C)c1-c1c(N)c(C(N)=O)nc2cccnc12` [Compound 210], the half-inhibitory concentration (IC50) at PKMYT1 is not below 5000 nM; in test [1] (Homo sapiens, HCC1806, 4 h), not below 5000 nM.
On to `NC(=O)c1cc2nccnc2c(-c2c(Cl)ccc3[nH]ncc23)c1N` (atropisomer, axis not shown) [Compound 246], for which the IC50 at PKMYT1 fell in the range of 50 to 500 nM; in test [1] (4 hours), 500 to 1000 nM.
`NC(=O)c1nc2cccnc2c(-c2cccc3[nH]ncc23)c1N` [Compound 206]: the IC50 on PKMYT1 fell in the range of 50 to 500 nM; in test [1] (Homo sapiens, HCC1806, 4 h), 1000 to 5000 nM.
With `Cc1c(O)cccc1-c1c(N)c(C(N)=O)nc2cccc(C#N)c12` (atropisomer, axis not shown) [Compound 243], the IC50 (at PKMYT1; in test [1] (4 hours)) was 50 to 500 nM in each case.
Consider `Cc1ccc(O)c(C)c1-c1c(N)c(C(N)=O)cc2cc(Cl)cnc12` [Compound 177], for which the results for the IC50 (at PKMYT1; in test [1] (4 hours)) were less than 50 nM and 50 to 500 nM, respectively.
As to `Cc1ccc(O)c(C)c1-c1c(N)c(C(N)=O)nc2c(C(F)(F)F)cccc12` (single isomer, unassigned) [Compound 31, (P)-3-amino-4-(3-hydroxy-2,6-dimethylphenyl)-8-(trifluoromethyl) quinoline-2-carboxamide], the IC50 (on PKMYT1; in test [1] (4 hours)) was not below 5000 nM in each case.
Take `Cc1c(O)cccc1-c1c(N)c(C(N)=O)cc2nc(C(F)(F)F)cnc12` (atropisomer, axis not shown; (M)) [Compound 103, (M)-7-Amino-8-(3-hydroxy-2-methylphenyl)-3-(trifluoromethyl)quinoxaline-6-carboxamide]: the values for the IC50 (on PKMYT1; in test [1] (4 hours)) were 1000 to 5000 nM and not below 5000 nM, respectively.
Take `Cc1c(O)cccc1-c1c(N)c(C(N)=O)cc2nc(O)c(C(F)(F)F)nc12` [Compound 137]: the IC50 on PKMYT1 is 1000 to 5000 nM; in test [1] (Homo sapiens, HCC1806, 4 h), not below 5000 nM.
For `COc1ccnc2c(-c3c(C)ccc(O)c3C)c(N)c(C(N)=O)cc12` [Compound 330], the IC50 was less than 50 nM on PKMYT1 and less than 50 nM in test [1] (Homo sapiens, HCC1806, 4 h).
In the case of `NC(=O)c1nc2cccnc2c(-c2c(F)ccc3[nH]ncc23)c1N` (atropisomer, axis not shown) [Compound 244], the IC50 at PKMYT1 lay within 50 to 500 nM; in test [1] (4 hours), 500 to 1000 nM.
For `Cc1ccc(O)c(C)c1-c1cc(C(N)=O)nc2ccccc12` [Compound 12, 4-(3-Hydroxy-2,6-dimethylphenyl)quinoline-2-carboxamide], the IC50 at PKMYT1 was in the range of 1000 to 5000 nM; in test [1] (Homo sapiens, HCC1806, 4 h) it was 50 to 500 nM.
`Cc1c(O)cccc1-c1c(N)c(C(N)=O)cc2nc(C)c(=O)n(C)c12` [Compound 138]: the half-maximal inhibitory concentration (IC50) at PKMYT1 was in the range of 50 to 500 nM; in test [1] (4 hours) it was 1000 to 5000 nM.
Take `COc1nc2cc(C(N)=O)c(N)c(-c3cccc(O)c3C)c2nc1C` (atropisomer, axis not shown) [Compound 193]: the IC50 (at PKMYT1; in test [1] (4 hours)) was not below 5000 nM each time.
With `NC(=O)c1cc2nccnc2c(-c2cc(O)cnc2Cl)c1N` (atropisomer, axis not shown) [Compound 164], the IC50 (on PKMYT1; in test [1] (4 hours)) was not below 5000 nM throughout.
Regarding `NC(=O)c1nc2cccnc2c(-c2cccc3[nH]cnc23)c1N` [Compound 181], the IC50 at PKMYT1 is not below 5000 nM; in test [1] (Homo sapiens, HCC1806, 4 h) it was not below 5000 nM.
For the molecule `Cc1ccc(O)c(C)c1-c1c(N)c(C(N)=O)nc2ccccc12` [Compound 22, 3-Amino-4-(3-hydroxy-2,6-dimethylphenyl)quinoline-2-carboxamide], the IC50 at PKMYT1 lay in the range of 50 to 500 nM; in test [1] (4 hours) it was 1000 to 5000 nM.
For the molecule `NC(=O)c1nc2cccnc2c(-c2cc(F)cc3[nH]ncc23)c1N` [Compound 203], the IC50 fell in the range of 50 to 500 nM on PKMYT1 and 1000 to 5000 nM in test [1] (Homo sapiens, HCC1806, 4 h).
For the molecule `Cc1ccc(O)cc1-c1c(N)c(C(N)=O)cc2nccnc12` (atropisomer, axis not shown; (P)) [Compound 117, (P)-7-amino-8-(5-hydroxy-2-methylphenyl)quinoxaline-6-carboxamide], the IC50 was 1000 to 5000 nM at PKMYT1 and not below 5000 nM in test [1] (4 hours).
On the same counts, the results for `NC(=O)c1cc2nccnc2c(-c2cccc(O)c2Cl)c1N` (single isomer, unassigned) [Compound 105, (P)-7-Amino-8-(2-chloro-3-hydroxyphenyl)quinoxaline-6-carboxamide] are less than 50 nM and 50 to 500 nM.
`Cc1c(O)cccc1-c1c(N)c(C(N)=O)cc2c1ncc(=O)n2C` (atropisomer, axis not shown) [Compound 284]: the IC50 at PKMYT1 is 50 to 500 nM; in test [1] (4 hours) it was not below 5000 nM.
`Cc1c(O)cccc1-c1c(N)c(C(N)=O)nc2cccc(F)c12` [Compound 56, 3-Amino-5-fluoro-4-(3-hydroxy-2-methyl-phenyl)quinoline-2-carboxamide]: the IC50 is 50 to 500 nM on PKMYT1 and 500 to 1000 nM in test [1] (Homo sapiens, HCC1806, 4 h).
On the same counts, the results for `Cc1ccc(O)c(C)c1-c1c(N)c(C(N)=O)nc2c(C)cccc12` [Compound 27, 3-Amino-4-(3-hydroxy-2,6-dimethylphenyl)-8-methylquinoline-2-carboxamide] are 500 to 1000 nM and 1000 to 5000 nM.
`Cn1ncc2c(-c3c(N)c(C(N)=O)nc4cccnc34)cncc21` [Compound 332]: the IC50 on PKMYT1 was 1000 to 5000 nM; in test [1] (Homo sapiens, HCC1806, 4 h) it was not below 5000 nM.
Turning to `Cc1c(O)cccc1-c1c(N)c(C(N)=O)cc2c1ncc(=O)n2C` (atropisomer, axis not shown) [Compound 283], the IC50 on PKMYT1 was 1000 to 5000 nM; in test [1] (4 hours) it was not below 5000 nM.
Take `NC(=O)c1cc2nccnc2c(-c2cccn3cncc23)c1N` [Compound 216]: the IC50 on PKMYT1 was 1000 to 5000 nM; in test [1] (Homo sapiens, HCC1806, 4 h), not below 5000 nM.
With `Cc1nc(F)ccc1-c1c(N)c(C(N)=O)nc2cccnc12` [Compound 228], the IC50 at PKMYT1 is not below 5000 nM; in test [1] (Homo sapiens, HCC1806, 4 h), not below 5000 nM.
With `Cc1c(-c2c(N)c(C(N)=O)nc3cccnc23)cnn1C` [Compound 320], the IC50 is not below 5000 nM at PKMYT1 and 1000 to 5000 nM in test [1] (Homo sapiens, HCC1806, 4 h).
Regarding `Cc1c(O)cccc1-c1c(N)c(C(N)=O)cc2ncc(C(F)(F)F)nc12` [Compound 115, 7-Amino-8-(3-hydroxy-2-methylphenyl)-2-(trifluoromethyl)quinoxaline-6-carboxamide], the half-maximal inhibitory concentration (IC50) on PKMYT1 is 50 to 500 nM; in test [1] (4 hours) it was 500 to 1000 nM.
Consider `Cc1c(O)cccc1-c1cc(C(N)=O)nc2c(C)ccc(C)c12` [Compound 52, 4-(3-Hydroxy-2-methylphenyl)-5,8-dimethylquinoline-2-carboxamide], for which the IC50 was not below 5000 nM at PKMYT1 and not below 5000 nM in test [1] (Homo sapiens, HCC1806, 4 h).
Consider `Cc1ccc(O)c(C)c1-c1c(N)c(C(N)=O)cc2nc(-c3cnn(C)c3)cnc12` [Compound 251], for which the IC50 was less than 50 nM on PKMYT1 and 500 to 1000 nM in test [1] (Homo sapiens, HCC1806, 4 h).
Turning to `Cc1c(-c2c(N)c(C(N)=O)cc3nccnc23)ccc(F)c1O` [Compound 227], the IC50 was less than 50 nM on PKMYT1 and 50 to 500 nM in test [1] (Homo sapiens, HCC1806, 4 h).
For `NC(=O)c1nc2cccnc2c(-c2cccc3occc23)c1N` [Compound 250], the IC50 on PKMYT1 was not below 5000 nM; in test [1] (Homo sapiens, HCC1806, 4 h), not below 5000 nM.
Take `Cc1ccc2[nH]ncc2c1-c1c(N)c(C(N)=O)cc2nccnc12` [Compound 77, 7-Amino-8-(5-methyl-1H-indazol-4-yl)quinoxaline-6-carboxamide]: the IC50 at PKMYT1 lay in the range of 50 to 500 nM; in test [1] (Homo sapiens, HCC1806, 4 h), 1000 to 5000 nM.
`Cc1c(O)cccc1-c1cc(C(N)=O)cc2nccnc12` [Compound 80, 8-(3-Hydroxy-2-methylphenyl)quinoxaline-6-carboxamide]: the IC50 on PKMYT1 was 1000 to 5000 nM; in test [1] (Homo sapiens, HCC1806, 4 h) it was not below 5000 nM.
With `Cc1ccc2c(-c3cccc(O)c3C)c(N)c(C(N)=O)nc2c1` (single isomer, unassigned) [Compound 50, (P)-3-amino-4-(3-hydroxy-2-methylphenyl)-7-methylquinoline-2-carboxamide], the IC50 (at PKMYT1; in test [1] (4 hours)) was not below 5000 nM in each case.
Consider `Cc1c(O)cccc1-c1c(N)c(C(N)=O)cc2ncc(C(F)(F)F)nc12` (single isomer, unassigned) [Compound 125, (M)-7-Amino-8-(3-hydroxy-2-methylphenyl)-2-(trifluoromethyl)-quinoxaline-6-carboxamide], for which the IC50 on PKMYT1 was 1000 to 5000 nM; in test [1] (4 hours) it was not below 5000 nM.
Regarding `Cc1ccc(O)c(C)c1-c1c(N)c(C(N)=O)nc2c(F)cccc12` (single isomer, unassigned) [Compound 39, (P)-3-amino-8-fluoro-4-(3-hydroxy-2,6-dimethylphenyl)quinoline-2-carboxamide], the IC50 (at PKMYT1; in test [1] (4 hours)) was not below 5000 nM throughout.

The values are drawn from US20260176270A1 (Exelixis, Inc., priority 2022, published 2026).
